Reference: US20070140972A1, “Targeting compositions and preparation therof” (CTT CANSER TARGETING TECHNOLOGIES OY, priority 2003, published 2007)
Where a SMILES comes first, the peptide text is derived from it.

Assays:
[1] = Serum stability of CTT2 derivative; type: in vitro ADME; details: versus wild type CTT2 peptide
[2] = tested on: human ovarian carcinoma tumours (OV-90); assay: Biodistribution of I-125 labelled 6F-Trp CTT2 peptide in OV-90 tumour mice (gamma counting); type: in vivo; details: 30 min and 180 min; clearance comparable to blood
Protocol: FIG. 8. The biodistribution study of I-125 labelled 6F-Trp CTT2 ([…][6-fluoro]WGFTLC)-peptide. The in vivo biodistribution of the ^125I-labeled peptide was assessed at two time points in NMRI/nude mice carrying human ovarian tumours on their lower back. Results are expressed as percentage of injected dose per 1 g tissue (% ID/1 g). All values are indicated as mean±SD of 5 mice.
The 6F-Trp CTT2 peptide was used in biodistribution study to evaluate its kinetic and tumour targeting properties. The study was performed in mice with established human ovarian carcinoma tumours (OV-90). The 6F-Trp CTT2 peptide was labelled with iodine-125. 40 μg of purified and labelled peptide (˜1 MBq) was injected into the tail vein of mice. 30 min and 180 min after peptide injection mice were sacrificed and blood and tissue samples were collected. The accumulated radioactivity was determined with gamma counter.

tumour cell migration = assay: Inhibition of tumour cell migration; type: cell-based; details: versus wild type CTT2 peptide
A2780 cells = assay: Therapeutic efficacy (survival) in A2780 xenograft mice; type: in vivo, NMRI nude female mice; details: three injections in three-day intervals; sacrificed when tumour exceeded 1000 mm^3
Protocol: A2780 cells were injected subcutaneously into the posterior flanks of 50 NMRI nude female mice. The mice were randomly allocated into five treatment groups. […] In this study, the mice received three drug injections of 9 mg liposomal or free doxorubicin/kg in three-day intervals.
The mice were weighed and their tumour sizes were measured twice a week after treatment initiation. When tumour sizes exceeded 1000 mm^3 the mice were sacrificed.

Row | Compound | serum stability in comparison to the wild type peptide [1] | accumulation of radioactivity in all other organs [2] | ability to inhibit tumour cell migration in comparison to the wild type peptide (tumour cell migration) | survival status by five weeks after treatment initiation (A2780 cells)
1 | CC(C)C[C@@H]1NC(=O)[C@H]([C@@H](C)O)NC(=O)[C@H](Cc2ccccc2)NC(=O)CNC(=O)C(Cc2c[nH]c3cc(F)ccc23)NC(=O)[C@H](Cc2c[nH]cn2)NC(=O)[C@H]([C@@H](C)O)NC(=O)[C@H]([C@@H](C)O)NC(=O)[C@@H](NC(=O)CNC(=O)[C@H](Cc2c[nH]cn2)NC(=O)[C@H](Cc2ccc(O)cc2)NC(=O)[C@H](CC(N)=O)NC(=O)[C@H](CCC(=O)O)NC(=O)[C@H](CCCNC(=N)N)NC(=O)CN)CSSC[C@@H](C(N)=O)NC1=O (stereo partly drawn) [6F-Trp CTT2, GRENYHG-Cyclo(CTTH(d,l-6-Fluoro-W)GFTLC)-NH2] (HELM PEPTIDE1{G.R.E.N.Y.H.G.C.T.T.H.[O=C(C(Cc1c[nH]c2cc(F)ccc12)N[*:1])[*:2]].G.F.T.L.C.[am]}$PEPTIDE1,PEPTIDE1,8:R3-17:R3$$$V2.0; N-terminus assumed) | enhancement in serum stability | negligible | improved ability to inhibit tumour cell migration | 
2 | COc1cccc2c1C(=O)c1c(O)c3c(c(O)c1C2=O)C[C@@](O)(C(=O)CO)C[C@@H]3O[C@H]1C[C@H](N)[C@H](O)[C@H](C)O1 [free doxorubicin, doxorubicin] |  |  |  | had been sacrificed
